Source: ChEMBL document CHEMBL1143962, “Protective effect of irisolidone, a metabolite of kakkalide, against hydrogen peroxide induced cell damage via antioxidant effect” (2008)
Calls of active or inactive are those of the source. The rule behind the calls is not given here.

Columns and labels:
V79-4 [1] = assay: Effect on hydrogen peroxide-induced DNA damage in chinese hamster V79-4 cells assessed as decrease in phospho H2A.X expression; assay type: functional, cell-based; details: Cricetulus griseus
V79-4 [2] = assay: Inhibition of hydrogen peroxide-induced lipid peroxidation in chinese hamster V79-4 cells assessed as TBARS per mg of protein at 10 ug/mL; assay type: functional, Cricetulus griseus
[3] = DPPH radical scavenging activity at 10 ug/ml after 30 mins; assay type: functional
V79-4 [4] = assay: Decrease in hydrogen peroxide-induced 8-OHdG in chinese hamster V79-4 cells at 1 ug/mL; assay type: functional, Cricetulus griseus
V79-4 [5] = assay: ROS scavenging activity in chinese hamster V79-4 cells at 50 ug/mL after 30 mins by DCF-DA method; assay type: functional, Cricetulus griseus
[6] = DPPH radical scavenging activity at 50 ug/ml after 30 mins; assay type: functional
V79-4 [7] = assay: Inhibition of hydrogen peroxide-induced lipid peroxidation in chinese hamster V79-4 cells assessed as TBARS per mg of protein at 50 ug/mL; assay type: functional, Cricetulus griseus
V79-4 [8] = assay: Protective effect on hydrogen peroxide-induced cell damage in chinese hamster V79-4 cells assessed as decrease in apoptotic sub-G1 DNA content at 50 ug/ml by flow cytometry; assay type: functional, Cricetulus griseus; set-up: scale not given: the % may be the effect or the level left
V79-4 [9] = assay: Decrease in hydrogen peroxide-induced 8-OHdG in chinese hamster V79-4 cells at 10 ug/mL; assay type: functional, Cricetulus griseus
V79-4 [10] = assay: Activation of ERK in chinese hamster V79-4 cells assessed as phosphorylated ERK within 6 hrs; assay type: cell-based; details: Cricetulus griseus
V79-4 [11] = assay: ROS scavenging activity in chinese hamster V79-4 cells at 10 ug/mL after 30 mins by DCF-DA method; assay type: functional, Cricetulus griseus
[12] = DPPH radical scavenging activity at 1 ug/ml after 30 mins; assay type: functional
V79-4 [13] = assay: ROS scavenging activity in chinese hamster V79-4 cells at 1 ug/mL after 30 mins by DCF-DA method; assay type: functional, Cricetulus griseus
V79-4 [14] = assay: Protective effect on hydrogen peroxide-induced damage in chinese hamster V79-4 cells in presence of U0126 by MTT assay; assay type: functional, cell-based; details: Cricetulus griseus
V79-4 [15] = assay: Decrease in hydrogen peroxide-induced 8-OHdG in chinese hamster V79-4 cells at 50 ug/mL; assay type: functional, Cricetulus griseus
V79-4 [16] = assay: Protective effect on hydrogen peroxide-induced cell damage in chinese hamster V79-4 cells assessed as decrease in DNA fragmentation level at 50 ug/ml by ELISA; assay type: functional, cell-based; details: Cricetulus griseus
V79-4 [17] = assay: Inhibition of hydrogen peroxide-induced lipid peroxidation in chinese hamster V79-4 cells assessed as TBARS per mg of protein at 1 ug/mL; assay type: functional, Cricetulus griseus
[18] = target: Transcription factor Jun (Homo sapiens) (UniProt P05412); assay: Increase in transcriptional activity of AP1 transfected in V79-4 cells by luciferase assay; assay type: cell-based
Sequence of Transcription factor Jun (Homo sapiens) (P05412 whole entry): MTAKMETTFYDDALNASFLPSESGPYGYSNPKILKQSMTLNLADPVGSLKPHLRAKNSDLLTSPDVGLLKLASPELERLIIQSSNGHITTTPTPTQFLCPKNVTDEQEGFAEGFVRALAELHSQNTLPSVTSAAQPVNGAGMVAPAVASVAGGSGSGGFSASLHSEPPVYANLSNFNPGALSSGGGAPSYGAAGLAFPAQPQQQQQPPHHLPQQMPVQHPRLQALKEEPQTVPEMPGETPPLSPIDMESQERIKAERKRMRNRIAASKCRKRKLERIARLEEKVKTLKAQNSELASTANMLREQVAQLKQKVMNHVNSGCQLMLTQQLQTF

V79-4 [19] = assay: Protection against hydrogen peroxide-induced apoptosis in chinese hamster V79-4 cells assessed as cell survival by MTT assay; assay type: functional, Cricetulus griseus

| SMILES | Activity (V79-4 [1]) | Activity (V79-4 [2]) [µmol] | Activity [3] [%] | Activity (V79-4 [4]) [pg/mL] | Activity (V79-4 [5]) [%] | Activity [6] [%] | Activity (V79-4 [7]) [µmol] | Activity (V79-4 [8]) [%] | Activity (V79-4 [9]) [pg/mL] | Activity (V79-4 [10]) | Activity (V79-4 [11]) [%] | Activity [12] [%] | Activity (V79-4 [13]) [%] | Activity (V79-4 [14]) | Activity (V79-4 [15]) [pg/mL] | Activity (V79-4 [16]) | Activity (V79-4 [17]) [µmol] | Activity [18] | Survival (V79-4 [19]) [%] |
| --- | --- | --- | --- | --- | --- | --- | --- | --- | --- | --- | --- | --- | --- | --- | --- | --- | --- | --- | --- |
| COc1ccc(-c2coc3cc(O)c(OC)c(O)c3c2=O)cc1 [IRISOLIDONE] | Active | 1 | 19 | 9280 | 66 | 44 | 0.8 | 36 | 7956 | Active | 58 | 10 | 41 | inactive | 6409 | Active | 1.2 | Active | 48 |
| COc1ccc(-c2coc3cc(O[C@@H]4O[C@H](COC5OC[C@@H](O)[C@H](O)[C@H]5O)[C@@H](O)[C@H](O)[C@H]4O)c(OC)c(O)c3c2=O)cc1 (stereo not given in full) [KAKKALIDE] |  |  | 12 |  | 51 | 28 |  |  |  |  | 37 | 8 | 29 |  |  |  |  |  |  |
